From patent US9260759B2, “Pyrazoloanthrone and derivatives thereof for the treatment of cancers expressing MISRII” (The General Hospital Corporation, priority 2007, dated 2016)
Positions count from the first letter of the chain named. Read-outs that look alike come from different tables or passages of the source.

Experiments:
[1] = tested on: c-jun; assay: Western blot of anisomycin-induced c-jun phosphorylation in MOVCAR cells; assay type: cell-based, mouse
Procedure: (§1) The results are representative of several experiments.
(§2) Cells were washed in PBS and lysates were prepared in 1× Passive lysis buffer (PLB) provided with the Dual luciferase reporter assay kit (Promega). The lysates were cleared by centrifugation and the protein concentration was determined by Bradford assay (Bio-Rad, Hercules Calif.). […] of protein were loaded onto a NuPAGE 4-12% Bis-Tris gradient gel with MOPS-buffer (Invitrogen, Carlsbad Calif.) for polyacrylamide gel electrophoresis. Following transfer to a nitrocellulose by electroblotting, the membrane was blocked in 5% milk Tris-buffered saline/Tween20 (TBS-T) for 1 h at room temperature and incubated with primary antibody (pJNK, c-jun and phosph c-jun antibodies were purchased from Cell Signalling, Danvers, Mass.; amd JNK antibody was published from Santa Cruz Biotechnology, Calif.) overnight at 4° C. in 5% BSA followed by incubation with secondary horseradish peroxidase conjugated anti-rabbit antibody (Jackson ImmunoResearch, Westgrove Pa.) for 1 h. Immunoreactive proteins were detected by enhanced chemiluminescence (Pierce, Rockford Ill.). Anisomycin was purchased from Calbiochem.
(§3) The known Jun kinase activator anisomycin was used as a positive control (Hazzalin, 1998). […] Further, MIS had no effect on phosphorylation of JNK by anisomycin.

[2] = target: T1, rat MISRII (Rattus norvegicus, UniProt Q62893); assay: BRE-luciferase reporter assay in COS7 cells transfected with MISRII; assay type: cell-based
T1 construct: expressed in transfected cells; host or cells: COS7
T1 sequence (Q62893 18-557): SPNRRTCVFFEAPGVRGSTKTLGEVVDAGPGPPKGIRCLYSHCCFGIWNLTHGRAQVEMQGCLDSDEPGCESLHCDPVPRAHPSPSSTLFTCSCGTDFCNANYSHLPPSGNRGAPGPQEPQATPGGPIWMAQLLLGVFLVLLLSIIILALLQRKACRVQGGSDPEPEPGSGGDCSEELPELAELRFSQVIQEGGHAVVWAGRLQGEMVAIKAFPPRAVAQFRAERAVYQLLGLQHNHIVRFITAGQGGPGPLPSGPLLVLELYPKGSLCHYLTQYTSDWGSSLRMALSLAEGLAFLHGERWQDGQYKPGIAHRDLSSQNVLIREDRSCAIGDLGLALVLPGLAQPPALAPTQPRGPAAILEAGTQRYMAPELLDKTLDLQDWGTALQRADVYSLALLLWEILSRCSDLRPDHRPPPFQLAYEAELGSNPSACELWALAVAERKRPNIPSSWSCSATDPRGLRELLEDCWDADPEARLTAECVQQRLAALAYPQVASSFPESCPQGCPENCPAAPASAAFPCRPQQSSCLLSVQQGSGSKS
Excerpt: COS7 cells were transiently transfected with MISRH, BRE-Luciferase and phRL-CMV. […] Control cells were transfected with a control plasmid (EGFP-N1 plasmid) instead of the receptor plasmid to keep the total DNA transfected constant. The results shown are the fold-induction over vehicle treated cells and normalized to phRL-CMV expression to correct for variations in cell number and transfection efficiency. […] The results represent the mean values from three independent experiments performed in triplicates (Error bars represent SEM, *p<0.05, **p<0.001).
To identify molecules that interact with the MISRII, we developed a reporter assay where binding to MISRII activates a firefly luciferase reporter driven by the BMP-responsive element (BRE) promoter kindly provided by Dr. Peter ten Dijke (The Netherlands Cancer Institute, The Netherlands) The BMP promoter region on mouse M. mus is located on chromosome 2 (Chr2) and corresponds to RefSeq No: NT—039207.6 93504644-93506272 (SEQ ID NO:1). The BRE-luciferase reporter (Korchynskyi and ten Dijke, 2002, Logeart-Avramoglou, 2006) has multiple optimized BMP response elements (3 SBE, 7 GC, and 4 CAGC) driving the expression of the firefly luciferase. This reporter construct together with a control Renilla luciferase reporter phRL-CMV (Promega, Madison Wis.) and a rat MISRII cDNA expression construct (Teixeira, 1996) were transiently transfected into COST cells and plated in 384 well plates. Primary screens were performed at the Harvard Institute of Chemistry and Cell Biology screening facility. Compounds from chosen libraries were added at a volume of 100 nl at 5 mg/ml concentration in DMSO into 30 μl cell media and cultured for 24 h at 37° C., after which the luciferase activity was measured with reagents from Promega according to the manufacturer's instructions. A hit was identified as causing a fold induction over the plate median and each compound was tested in duplicate in separate plates. MIS was used to control for intra- and inter-assay variability.
COS7 cells were plated at a density of 5000 cells/well in 96-well plates for secondary screens. The day after plating cells were transfected with rat MISRII receptor or EGFP-N1 (Clontech, Mountain View Calif.) together with BRE firefly luciferase reporter construct and phRL-CMV using TransIT-LT1 transfection reagent (Mirus Bio Corporation, Madison Wis.). […] Results were obtained using the Dual Luciferase reporter assay according to the manufacturer's instructions (Promega). Plates were read in a Wallac Victor2 luminometer (PerkinElmer, Wellesley Mass.).

[3] = tested on: JNK; assay: Immunoblot of JNK phosphorylation in MOVCAR7 cells; assay type: cell-based, mouse
Procedure: as §1, §2, §3

[4] = tested on: MOVCAR7 cells; assay: MTT proliferation assay, MOVCAR7 cells; assay type: cell-based; conditions: Mus musculus, 168 h
Procedure: Cells were plated in 96-well plates and treated the day after. Seven days after plating the cell survival was measured using 3-(4,5-dimethylthiazol-2-yl)-2,5-diphenyltetrazolium bromide substrate and measuring the absorbance at 550 nm.
(Connolly, 2003). The 4306 cells were provided by Dr. Daniela Dinulescu, Brigham and Women's (Boston) (30). Cells were plated at a density of 1000 cells/well in 96-well plates and treated 24 h later. The cell proliferation was measured after 7 days by registering the absorbance at 550 nm. Paclitaxel was manufactured by Ivax Pharmaceuticals and obtained from the MGH pharmacy.
The cells were treated for 7 days and the proliferation was measured by spectrophotometry. To exclude cytotoxic effects on the cells unrelated to MIS signal transduction, we used untransfected COS7 cells as a negative control. […] Paclitaxel is used in treatment of a wide range of tumors, but the side effects can be debilitating (Pieretti-Vanmarcke, 2006a, Pieretti-Vanmarcke, 2006b).

[5] = target: T2, endogenous MISRII (Mus musculus, UniProt Q8K592); assay: BRE-luciferase reporter assay in MOVCAR7 cells expressing endogenous MISRII; assay type: cell-based; conditions: 5 μg/ml MIS, MOVCAR7, 24 h
T2 construct: a mouse ovarian cancer cell line, MOVCAR7, that expresses endogenous MISRII; endogenous in cells; host or cells: MOVCAR7 (mouse ovarian cancer cell line)
T2 sequence (Q8K592 16-568): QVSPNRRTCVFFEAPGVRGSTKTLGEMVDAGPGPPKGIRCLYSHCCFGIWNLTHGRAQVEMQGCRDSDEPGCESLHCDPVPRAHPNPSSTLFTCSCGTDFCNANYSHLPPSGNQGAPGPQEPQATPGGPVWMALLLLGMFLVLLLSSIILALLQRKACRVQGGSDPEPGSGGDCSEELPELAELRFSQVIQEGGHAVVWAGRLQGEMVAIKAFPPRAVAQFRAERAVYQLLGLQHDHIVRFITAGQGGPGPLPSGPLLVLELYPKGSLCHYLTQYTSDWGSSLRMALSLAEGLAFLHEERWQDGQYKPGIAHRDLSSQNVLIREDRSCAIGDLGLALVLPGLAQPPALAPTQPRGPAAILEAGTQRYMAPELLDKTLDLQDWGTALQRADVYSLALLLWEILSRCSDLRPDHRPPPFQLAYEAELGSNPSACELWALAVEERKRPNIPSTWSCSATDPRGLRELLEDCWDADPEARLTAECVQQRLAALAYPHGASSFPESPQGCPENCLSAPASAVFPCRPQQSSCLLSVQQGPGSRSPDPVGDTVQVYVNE

[6] = target: T3, MISRIIK228R (Rattus norvegicus, UniProt Q62893, K228R); assay: BRE-luciferase reporter assay in COS7 cells with kinase-deficient receptor MISRIIK228R; assay type: cell-based; conditions: K228R receptor overexpressed, COS7, 24 hrs, agent alone
T3 construct: expressed in transfected cells; host or cells: COS7
T3 sequence (Q62893 18-557 K228R): T1 sequence (Q62893 18-557) with K211R
Excerpt: Results shown represent the mean values from four independent experiments performed in triplicates (Error bars represent standard error of the mean, *, P<0.05).

Q: For `CCOc1nc(NC(=O)Cc2cc(OC)ccc2OC)cc(N)c1C#N` [JNK inhibitor VIII, reference compound], which “inhibiting phosphorylation of c-jun, compared with SP600125” value [1] is on record?
A: much more effective

Q: What about the “c-jun phosphorylation induced by 500 nM anisomycin” value ([1]; pre-treatment 25 uM) of the same molecule?
A: inhibited

Q: What about the “effect on BRE-luciferase when combined with MIS” value ([2]; JNK inhibitor VIII 5, 25 or 50 μM with MIS) of the same molecule?
A: no further effect

Q: And the “activation of BRE-luciferase” value ([2]; JNK inhibitor VIII at 5, 25 or 50 μM alone, COS7)?
A: did not result in any activation

Q: For `COc1ccc(C[C@H]2NC[C@H](O)[C@H]2OC(C)=O)cc1` [anisomycin, reference compound], which “phosphorylation of JNK (positive control)” value ([3]; 500 nM anisomycin, 30 min) is on record?
A: strong activation

Q: With `CC(=O)O[C@H]1C(=O)[C@@]2(C)[C@H]([C@H](OC(=O)c3ccccc3)[C@]3(O)C[C@H](OC(=O)[C@H](O)[C@@H](NC(=O)c4ccccc4)c4ccccc4)C(C)=C1C3(C)C)[C@]1(OC(C)=O)CO[C@@H]1C[C@@H]2O` [paclitaxel] as the molecule, how does the IC50 ([4]; read-out: IC50 of paclitaxel combined with SP600125) read?
A: 0.21 nM

Q: What about the IC50 ([4]; MOVCAR7, 7 days, MTT, read-out: IC50 of paclitaxel alone) of the same molecule?
A: 0.81 nM

B1: MIS: Recombinant human MIS prepared from Chinese hamster ovary cells stably transfected with the human MIS gene (protein)
chain: LRAEEPAVGTSGLIFREDLDWPPGSPQEPLCLVALGGDSNGSSSPLRVVGALSAYEQAFLGAVQRARWGPRDLATFGVCNTGDRQAALPSLRRLGAWLRDPGGQRLVVLHLEEVTWEPTPSLRFQEPPPGGAGPPELALLVLYPGPGPEVTVTRAGLPGAQSLCPSRDTRYLVLAVDRPAGAWRGSGLALTLQPRGEDSRLSTARLQALLFGDDHRCFTRMTPALLLLPRSEPAPLPAHGQLDTVPFPPPRPSAELEESPPSADPFLETLTRLVRALRVPPARASAPRLALDPDALAGFPQGLVNLSDPAALERLLDGEEPLLLLLRPTAATTGDPAPLHDPTSAPWATALARRVAAELQAAAAELRSLPGLPPATAPLLARLLALCPGGPGGLGDPLRALLLLKALQGLRVEWRGRDPRGPGRAQRSAGATAADGPCALRELSVDLRAERSVLIPETYQANNCQGVCGWPQSDRNPRYGNHVVLLLKMQVRGAALARPPCCVPTAYAGKLLISLSEERISAHHVPNMVATECGCR
Q: With B1 as the molecule, how does the “phosphorylation of JNK” value ([3]; 5 μg/ml MIS, 30 min) read?
A: no phosphorylation beyond background

Q: And the “effect of MIS on phosphorylation of JNK by anisomycin” value ([3]; MIS with anisomycin)?
A: no effect

Q: What about the “increase of BRE activity compared to untreated cells” value [5] of the same molecule?
A: 2 fold

Q: And the “activation of BRE-luciferase with kinase-deficient receptor” value [6]?
A: neither MIS nor SP600125 activates BRE-luciferase

Q: What about the “BRE-luciferase expression, fold induction” value ([2]; MIS 0.5 ug/ml alone, MISRII-transfected COS7, 24 h) of the same molecule?
A: greater than ten-fold
